US20220280661A1, “GLUCOCORTICOID RECEPTOR RADIOLIGANDS AND METHODS FOR THEIR PREPARATION AND USE” (The Regents of the University of California, priority 2019, published 2022)
Read-outs that look alike come from different tables or passages of the source.

Legend:
GR [1] = molecular target: T1, GR (Homo sapiens, UniProt P04150); assay: 3H-dexamethasone displacement assay on cells (Ki); assay type: binding
T1 construct: evaluated using ^3H-ligand displacement assays on cells; endogenous in cells; host or cells: DU145
T1 sequence (P04150 1-777): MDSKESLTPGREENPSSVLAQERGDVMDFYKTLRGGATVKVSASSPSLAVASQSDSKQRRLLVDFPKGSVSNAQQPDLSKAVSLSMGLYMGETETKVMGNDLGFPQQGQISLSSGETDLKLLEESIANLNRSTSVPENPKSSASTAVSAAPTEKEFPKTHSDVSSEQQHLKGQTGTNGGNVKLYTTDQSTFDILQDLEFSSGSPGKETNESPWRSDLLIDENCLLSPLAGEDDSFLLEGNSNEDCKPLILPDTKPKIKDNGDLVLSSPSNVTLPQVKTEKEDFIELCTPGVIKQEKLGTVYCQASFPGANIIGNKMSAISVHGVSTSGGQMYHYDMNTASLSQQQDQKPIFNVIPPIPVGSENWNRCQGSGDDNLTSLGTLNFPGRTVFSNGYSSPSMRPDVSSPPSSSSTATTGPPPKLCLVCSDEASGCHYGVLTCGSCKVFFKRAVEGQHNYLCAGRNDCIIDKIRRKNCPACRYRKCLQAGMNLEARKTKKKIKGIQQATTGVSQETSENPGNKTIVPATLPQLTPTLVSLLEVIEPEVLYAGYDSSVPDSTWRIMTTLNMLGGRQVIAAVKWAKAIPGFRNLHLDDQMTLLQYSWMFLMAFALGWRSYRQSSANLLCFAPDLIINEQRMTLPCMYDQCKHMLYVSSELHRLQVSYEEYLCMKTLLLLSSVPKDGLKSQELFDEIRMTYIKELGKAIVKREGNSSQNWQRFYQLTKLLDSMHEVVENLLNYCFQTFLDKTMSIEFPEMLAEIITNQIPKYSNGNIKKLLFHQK
Protocol: Statistics. All statistical analysis was performed using PRISM v8.0 software. An unpaired, two-tailed Student's t test was used to determine statistically significant differences in the data. P<0.05 was reported as statistically significant. For the determination of Ki, the data were fit with a one site nonlinear regression model.
The racemic mixture of the phenol 27 was resolved using a chiral Lux® 5p Cellulose-1 stationary phase with an isocratic mobile phase of 30% water, 70% acetonitrile, and 0.1% trifluoroacetic acid (v v) (FIG. 8A). Several milligrams of one peak were isolated and the compound was recrystallized in hexanes.
The Ki were calculated using a one site Ki fit nonlinear regression with Prism v8.0. The data are representative of two independent assays.

GR [2] = molecular target: T2, GR (Mus musculus, UniProt P06537); assay: 11C radiotracer biodistribution with dexamethasone or Dex-CD blocking; assay type: in vivo; conditions: for radiotracer uptake, Adrenal / radiotracer uptake, Blood / radiotracer uptake, Bone / radiotracer uptake, Brain / radiotracer uptake, Brown Fat / radiotracer uptake, Heart / radiotracer uptake, Kidney / radiotracer uptake, Lg. Int. / radiotracer uptake, Liver / radiotracer uptake, Lung / radiotracer uptake, Muscle / radiotracer uptake, Pancreas / radiotracer uptake, Sm. Int. / radiotracer uptake, Spleen / radiotracer uptake, Stomach: 20 min after injection
T2 construct: from tissue; host or cells: tissues of C57BL6/J mice (intact or adrenalectomized), in vivo
T2 sequence (P06537 1-792): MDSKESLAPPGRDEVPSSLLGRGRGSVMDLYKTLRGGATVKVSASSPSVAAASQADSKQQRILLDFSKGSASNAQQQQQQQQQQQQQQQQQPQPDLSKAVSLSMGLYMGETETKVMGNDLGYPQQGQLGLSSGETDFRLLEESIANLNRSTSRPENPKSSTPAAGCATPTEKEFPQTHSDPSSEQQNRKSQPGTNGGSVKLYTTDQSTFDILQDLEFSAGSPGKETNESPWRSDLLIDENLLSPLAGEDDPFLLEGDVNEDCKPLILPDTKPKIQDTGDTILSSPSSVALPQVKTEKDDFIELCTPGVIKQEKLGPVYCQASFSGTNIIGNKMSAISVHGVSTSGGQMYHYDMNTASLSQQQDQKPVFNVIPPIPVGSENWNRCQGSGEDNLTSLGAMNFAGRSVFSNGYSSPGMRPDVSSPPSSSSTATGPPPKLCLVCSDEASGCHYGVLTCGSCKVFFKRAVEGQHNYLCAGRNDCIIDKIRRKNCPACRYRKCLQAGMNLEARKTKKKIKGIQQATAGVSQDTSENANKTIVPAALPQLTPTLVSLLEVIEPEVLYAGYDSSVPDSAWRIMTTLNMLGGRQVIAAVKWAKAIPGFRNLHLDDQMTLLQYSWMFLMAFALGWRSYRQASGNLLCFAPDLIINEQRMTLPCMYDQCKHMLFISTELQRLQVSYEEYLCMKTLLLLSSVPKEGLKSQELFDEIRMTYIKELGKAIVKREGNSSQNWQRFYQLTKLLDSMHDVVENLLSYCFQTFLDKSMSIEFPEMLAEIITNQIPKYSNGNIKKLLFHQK
Protocol: Animal Studies. All animal experiments were performed under the approval of the Institutional Animal Care and Use Committee (IACUC) at UCSF. C57BL6/J mice (4-6 weeks) were purchased from Charles River. All the mice were housed in a dedicated vivarium with free access to food and water. […] Adrenalectomized mice were purchased from Charles River and provided drinking water supplemented with NaCl (aq) per instructions until the time of the tracer biodistribution study.
Biodistribution Studies. Mice were euthanized after radiotracer (7.4-18.5 MBq in 100-150 μL) injection with CO2 (g) asphyxiation and dissected at dedicated time points post injection. The blood and tissues were collected, washed, dried, and weighed. The activity of each tissue was measured with a gamma counter. All data was decay corrected. PRISM software was used to express a percentage (% ID/g) of the injected dose per gram of tissue.
The P value indicates the result of an unpaired, two-tailed Student's t test between the respective treatment group and vehicle (n=5/group).
Table 10 summarizes biodistribution data collected 20 minutes after injection of ^11C-YJH02 among two treatment arms receiving vehicle or one intraperitoneal injection of the water-soluble dexamethasone-cyclodextrin complex at 10 mg/kg one hour prior to radiotracer administration. The P value indicates the result of an unpaired, two-tailed Student's t test between the respective treatment group and vehicle (n=5/group).

[3] = Plasma protein binding, rapid equilibrium dialysis, mouse plasma; assay type: in vitro ADME; conditions: mouse, plasma, pH 7.4, mouse plasma
Protocol: (§1) Plasma Protein Binding Studies. The rapid equilibrium dialysis (RED) device inserts along with a Teflon base plate (Pierce, Rockford, Ill.) were used for the binding studies. The pH of the human or mouse plasma was adjusted to 7.4 prior to the experiment. DMSO stocks (1 mM) were spiked into the plasma to make a final concentration of 2 μM. The spiked plasma solutions (300 μL) were placed into the sample chamber (indicated by the red ring); and 500 μL of PBS buffer, pH 7.4, was placed into the adjacent chamber. The plate was incubated at 37° C. on an orbital shaker (250 rpm) for 4 hours.
(§2) After 4 hours, from the RED plate, aliquots (100 μL) were removed from each side of the insert (plasma and buffer) and dispensed into the 96-well plate. Subsequently, 100 μL of blank plasma was added to the buffer samples and 100 μL of blank buffer was added to all the collected plasma samples. 300 μL of quench solution (50% acetonitrile, 50% methanol, and 0.05% formic acid, warmed up at 37° C.) containing internal standards was added to each well. Plates were sealed, vortexed, and centrifuged at 4° C. for 15 minutes at 4000 rpm. The supernatant was transferred to fresh plates for LC/MS/MS analysis. The sample were analyzed on LC/MS/MS using an AB Sciex API 4000 instrument, coupled to a Shimadzu LC-20AD LC Pump system. Analytical samples were separated using a Waters Atlantis T3 dC18 reverse phase HPLC column (20 mm×2.1 mm) at a flow rate of 0.5 mL/min. The mobile phase consisted of 0.1% formic acid in water (solvent A) and 0.1% formic acid in acetonitrile (solvent B).
(§3) The percentage of test compound bound to protein was calculated by the following equations:
(§4) % Free=(Concentration in buffer chamber/Concentration in plasma chamber)×100%

plasma protein [4] = assay: as above; assay type: in vitro ADME
Protocol: as §1, §2, §3, §4

[5] = Plasma protein binding, rapid equilibrium dialysis, human plasma; assay type: in vitro ADME; conditions: human, plasma, pH 7.4, human plasma
Protocol: as §1, §2, §3, §4

plasma protein [6] = assay: as above; assay type: in vitro ADME
Protocol: as §1, §2, §3, §4

[7] = GR in cells, one site Ki fit, read-out: Ki
[8] = mice given Dex-CD 10 mg/kg intraperitoneal one hour prior to radiotracer
[9] = DU145 cells, read-out: affinity (3H-dexamethasone displacement curves)
[10] = duplicate, read-out: % Bound (converted)
[11] = read-out: % Bound Average (converted)

CC1=CC(C)(C)Nc2ccc3c(c21)c(=O)oc1cccc(O)c13 [YJH01, 2,5-dihydro-10-hydroxy-5-oxo-2,2,4-trimethyl-1H-[1]benzopyrano [3,4-f]quinoline]
Ki (GR [1]; [7]): 2.35 nM

COc1cccc2oc(=O)c3c4c(ccc3c12)NC(C)(C)C=C4C [YJH02, 2,5-Dihydro-10-methoxy-5-oxo-2,2,4-trimethyl-1H-[1]benzopyrano [3,4-f]quinoline]
Ki (GR [1]; [7]): 2.67 nM

COc1cccc2c1-c1ccc3c(c1C(O)O2)C(C)=CC(C)(C)N3 (centres unmarked) [YJH03]
Ki (GR [1]; [7]): 6.51 nM

COc1cccc2c1-c1ccc3c(c1C(OC)O2)C(C)=CC(C)(C)N3 (centres unmarked) [YJH04, 5,10-Dimethoxy-2,5-dihydro-2,2,4-trimethyl-1H-[1]benzopyrano[3,4-f]quinolone]
Ki (GR [1]; [7]): 6.22 nM

COc1cccc2oc(=O)c3c4c(ccc3c12)NC(C)(C)C=C4C [^11C-YJH02]
radiotracer uptake, Adrenal (GR [2]; [8]): 2.37 ± 1.0 % ID/g
radiotracer uptake, Blood (GR [2]; [8]): 1.07 ± 0.1 % ID/g
radiotracer uptake, Bone (GR [2]; [8]): 0.76 ± 0.1 % ID/g
radiotracer uptake, Brain (GR [2]; [8]): 0.34 ± 0.07 % ID/g
radiotracer uptake, Brown Fat (GR [2]; [8]): 3.64 ± 1.0 % ID/g
radiotracer uptake, Heart (GR [2]; [8]): 0.97 ± 0.1 % ID/g
radiotracer uptake, Kidney (GR [2]; [8]): 1.28 ± 0.1 % ID/g
radiotracer uptake, Lg. Int. (GR [2]; [8]): 1.06 ± 0.3 % ID/g
radiotracer uptake, Liver (GR [2]; [8]): 3.75 ± 0.8 % ID/g
radiotracer uptake, Lung (GR [2]; [8]): 1.71 ± 0.2 % ID/g
radiotracer uptake, Muscle (GR [2]; [8]): 0.57 ± 0.1 % ID/g
radiotracer uptake, Pancreas (GR [2]; [8]): 1.76 ± 0.4 % ID/g
radiotracer uptake, Sm. Int. (GR [2]; [8]): 5.80 ± 2.5 % ID/g
radiotracer uptake, Spleen (GR [2]; [8]): 0.76 ± 0.1 % ID/g
radiotracer uptake, Stomach (GR [2]; [8]): 1.81 ± 0.3 % ID/g
radiotracer uptake, Adrenal (GR [2]; mice given vehicle): 6.17 ± 0.7 % ID/g
radiotracer uptake, Blood (GR [2]; mice given vehicle): 1.24 ± 0.1 % ID/g
radiotracer uptake, Bone (GR [2]; mice given vehicle): 0.70 ± 0.1 % ID/g
radiotracer uptake, Brain (GR [2]; mice given vehicle): 0.66 ± 0.1 % ID/g
radiotracer uptake, Brown Fat (GR [2]; mice given vehicle): 4.65 ± 1.1 % ID/g
radiotracer uptake, Heart (GR [2]; mice given vehicle): 1.15 ± 0.2 % ID/g
radiotracer uptake, Kidney (GR [2]; mice given vehicle): 1.38 ± 0.4 % ID/g
radiotracer uptake, Lg. Int. (GR [2]; mice given vehicle): 1.63 ± 0.4 % ID/g
radiotracer uptake, Liver (GR [2]; mice given vehicle): 6.78 ± 1.1 % ID/g
radiotracer uptake, Lung (GR [2]; mice given vehicle): 2.07 ± 0.4 % ID/g
radiotracer uptake, Muscle (GR [2]; mice given vehicle): 0.74 ± 0.1 % ID/g
radiotracer uptake, Pancreas (GR [2]; mice given vehicle): 2.70 ± 0.4 % ID/g
radiotracer uptake, Sm. Int. (GR [2]; mice given vehicle): 10.88 ± 2.7 % ID/g
radiotracer uptake, Spleen (GR [2]; mice given vehicle): 1.55 ± 0.1 % ID/g
radiotracer uptake, Stomach (GR [2]; mice given vehicle): 2.51 ± 0.4 % ID/g
brain uptake relative to (±)-^11C-YJH08 (GR [2]; normal mice, 20 min post injection): approximately three fold lower

COc1cccc2c1-c1ccc3c(c1[C@@H](Cc1ccc(F)cc1)O2)C(C)=CC(C)(C)N3 [(R)-YJH08]
Ki (GR [1]; [9]): < 5 nM
Ki (GR [1]; [7]): 3.76 nM

COc1cccc2c1-c1ccc3c(c1[C@H](Cc1ccc(F)cc1)O2)C(C)=CC(C)(C)N3 [(S)-YJH08]
Ki (GR [1]; [9]): < 5 nM
Ki (GR [1]; [7]): 2.03 nM

CC(C)NCC(O)COc1cccc2ccccc12 (centres unmarked) [Propranolol]
fraction unbound at 4 h, 2 μM [3, 10]: 0.223
fraction unbound at 4 h, 2 μM [3, 11]: 0.22
% Bound (plasma protein [4]; mouse plasma, 2 μM, duplicate): 78.25%
recovery at 4 h, 2 μM (plasma protein [4]; plasma (rapid equilibrium dialysis device), pH 7.4, mouse plasma): 106%
fraction unbound at 4 h, 2 μM [5, 10]: 0.354
fraction unbound at 4 h, 2 μM [5, 11]: 0.354
% Bound (plasma protein [6]; human plasma, 2 μM, duplicate): 64.56%
recovery at 4 h, 2 μM (plasma protein [6]; plasma (rapid equilibrium dialysis device), pH 7.4, human plasma): 104%
